Key:
Type in all cases: physicochemical
[1] = Preliminary stability study of API intravesical solution; conditions: vitamin E TPGS 2%, API 150 μg/mL, no Asc., treated with nitrogen
Procedure: Two dose strengths were specified: 40 μg/mL and 150 μg/mL API. These concentrations were defined in order to stay below 80% of the saturated solubility values obtained during previous experiments. To enable dissolution of the API, 0.5 wt.-% and 2 wt.-% vitamin E TPGS were used for 40 μg/mL and 150 μg/mL API, respectively (24 h stirring). The compositions were treated with nitrogen and stored at 5° C., 25° C. and 40° C.

[2] = Solubility and stability of API in dependence of surfactant concentration; conditions: phosphate buffer and 0.50% vitamin E TPGS, compared with other buffer/surfactant combinations at 0.25% and 0.5%
Procedure: In order to prevent too high concentrations of surfactants, which can cause irritant or toxic effects after local administration in the bladder, lower concentrations were evaluated. New batches of API in citrate and phosphate buffer were manufactured. SLS and vitamin E TPGS were chosen for citrate buffer and Labrasol® and vitamin E TPGS for phosphate buffer in a concentration of 0.5% and 0.25%, each. The compositions were stirred overnight prior to filtration and analysis.

[3] = Solubility and impurities of API with solubility enhancing excipients in citrate or phosphate buffer pH 4.5; conditions: for solubility: thermodynamic from solid
Procedure: The solubility of the API was assessed in different buffers together with different excipients. Batches containing different amounts of non-micronized API (i.e. 1 mg, 4 mg, 10 mg or 15 mg) in 100 g buffer were manufactured in order to have saturated solutions. Two different buffers were chosen (citrate buffer and phosphate buffer). […] In order to improve the poor solubility of the API, different solubility enhancing excipients were incorporated in the buffer systems in a concentration range of 0.1-2 wt.-%:
First, buffers were prepared according to Ph. Eur. After pH adjustment, the corresponding excipient was dissolved in the buffer. 1 mg of the API was added to the excipient containing buffer (i.e. 100 g) and stirred. If the API was dissolved completely, another 9 mg were added to a final amount of 10 mg API in […] buffer/excipient mixture. The resulting compositions were stirred overnight prior to filtration through a 0.45 μm filter and analysis and contained 1 mg or 10 mg API, respectively. The following compositions were prepared and the following solubility values were achieved: […]

## CN(C)[C@]1(c2cccc(F)c2)CC[C@]2(CC1)c1[nH]c3ccccc3c1CCN2C(=O)/C=C/c1ccccc1 [API, cis-(E)-4-(3-fluorophenyl)-2′,3′,4′,9′-tetrahydro-N,N-dimethyl-2′-(1-oxo-3-phenyl-2-propenyl)-spiro[cyclohexane-1,1′[1H]-pyrido[3,4-b]indol]-4-amine]
[1]; 25° C., 3 m
  Assay: 61.96 % L.S.
  Impurities: 1.37 % (a/a)
[1]; 40° C., 1 m
  Assay: 61.37 % L.S.
  Impurities: 1.84 % (a/a)
[1]; 40° C., 2 w
  Assay: 61.71 % L.S.
  Impurities: 1.16 % (a/a)
[1]; 40° C., 3 m
  Assay: 59.41 % L.S.
  Impurities: 4.09 % (a/a)
[1]; t = 0
  Assay: 61.73 % L.S.
  Impurities: 0.44 % (a/a)
[2]
  assay and impurities: highest assay and lowest impurities values
[3]; citrate buffer pH 4.5, 1 wt.-% Cremophor ® RH 40, 1 mg API in 100 g buffer
  Sum of impurities: 0.92 % (a/a)
[3]; citrate buffer pH 4.5, 1 wt.-% Gelucire ® 44/14, 10 mg API in 100 g buffer
  Sum of impurities: 25.91 % (a/a)
[3]; citrate buffer pH 4.5, 1 wt.-% Labrasol ®, 10 mg API in 100 g buffer
  Sum of impurities: 19.81 % (a/a)
[3]; citrate buffer pH 4.5, 1 wt.-% PEG 400, 10 mg API in 100 g buffer
  Sum of impurities: 0 % (a/a)
[3]; citrate buffer pH 4.5, 1 wt.-% Propylene glycol, 10 mg API in 100 g buffer
  Sum of impurities: 0 % (a/a)
[3]; citrate buffer pH 4.5, 1 wt.-% SLS, 1 mg API in 100 g buffer
  Sum of impurities: 5.52 % (a/a)
[3]; citrate buffer pH 4.5, 1 wt.-% SLS, 10 mg API in 100 g buffer
  Sum of impurities: 3.47 % (a/a)
[3]; citrate buffer pH 4.5, 1 wt.-% Solutol ® HS 15, 1 mg API in 100 g buffer
  Sum of impurities: 0.53 % (a/a)
[3]; citrate buffer pH 4.5, 1 wt.-% Tween ® 80, 1 mg API in 100 g buffer
  Sum of impurities: 1.1 % (a/a)
[3]; citrate buffer pH 4.5, 1 wt.-% vitamin E TPGS, 10 mg API in 100 g buffer
  Sum of impurities: 5.71 % (a/a)
[3]; citrate buffer, pH 4.5, aqueous with cosolvent or surfactant or cyclodextrin, citrate buffer pH 4.5, 1 wt.-% Cremophor ® RH 40, 1 mg API in 100 g buffer
  solubility: 7.18 µg/mL
[3]; citrate buffer, pH 4.5, aqueous with cosolvent or surfactant or cyclodextrin, citrate buffer pH 4.5, 1 wt.-% Gelucire ® 44/14, 10 mg API in 100 g buffer
  solubility: 34.9 µg/mL
[3]; citrate buffer, pH 4.5, aqueous with cosolvent or surfactant or cyclodextrin, citrate buffer pH 4.5, 1 wt.-% Labrasol ®, 10 mg API in 100 g buffer
  solubility: 12.1 µg/mL
[3]; citrate buffer, pH 4.5, aqueous with cosolvent or surfactant or cyclodextrin, citrate buffer pH 4.5, 1 wt.-% SLS, 1 mg API in 100 g buffer
  solubility: 79.5 µg/mL
[3]; citrate buffer, pH 4.5, aqueous with cosolvent or surfactant or cyclodextrin, citrate buffer pH 4.5, 1 wt.-% SLS, 10 mg API in 100 g buffer
  solubility: 8.19 µg/mL
[3]; citrate buffer, pH 4.5, aqueous with cosolvent or surfactant or cyclodextrin, citrate buffer pH 4.5, 1 wt.-% Solutol ® HS 15, 1 mg API in 100 g buffer
  solubility: 7.95 µg/mL
[3]; citrate buffer, pH 4.5, aqueous with cosolvent or surfactant or cyclodextrin, citrate buffer pH 4.5, 1 wt.-% Tween ® 80, 1 mg API in 100 g buffer
  solubility: 7.93 µg/mL
[3]; citrate buffer, pH 4.5, aqueous with cosolvent or surfactant or cyclodextrin, citrate buffer pH 4.5, 1 wt.-% vitamin E TPGS, 10 mg API in 100 g buffer
  solubility: 76.4 µg/mL
[3]; phosphate buffer pH 4.5, 1 wt.-% Cremophor ® RH 40, 1 mg API in 100 g buffer
  Sum of impurities: 0.2 % (a/a)
[3]; phosphate buffer pH 4.5, 1 wt.-% Gelucire ® 44/14, 1 mg API in 100 g buffer
  Sum of impurities: 17.48 % (a/a)
[3]; phosphate buffer pH 4.5, 1 wt.-% Labrasol ®, 1 mg API in 100 g buffer
  Sum of impurities: 5.91 % (a/a)
[3]; phosphate buffer pH 4.5, 1 wt.-% PEG 400, 1 mg API in 100 g buffer
  Sum of impurities: 11.7 % (a/a)
[3]; phosphate buffer pH 4.5, 1 wt.-% Propylene glycol, 1 mg API in 100 g buffer
  Sum of impurities: 38.22 % (a/a)
[3]; phosphate buffer pH 4.5, 1 wt.-% SLS, 1 mg API in 100 g buffer
  Sum of impurities: 22.55 % (a/a)
[3]; phosphate buffer pH 4.5, 1 wt.-% Solutol ® HS 15, 1 mg API in 100 g buffer
  Sum of impurities: 0.2 % (a/a)
[3]; phosphate buffer pH 4.5, 1 wt.-% Tween ® 80, 1 mg API in 100 g buffer
  Sum of impurities: 0.52 % (a/a)
[3]; phosphate buffer pH 4.5, 1 wt.-% vitamin E TPGS, 10 mg API in 100 g buffer
  Sum of impurities: 1.87 % (a/a)
[3]; phosphate buffer, pH 4.5, aqueous buffer, phosphate buffer pH 4.5, 1 wt.-% PEG 400, 1 mg API in 100 g buffer
  solubility: 0.83 µg/mL
[3]; phosphate buffer, pH 4.5, aqueous buffer, phosphate buffer pH 4.5, 1 wt.-% Propylene glycol, 1 mg API in 100 g buffer
  solubility: 0.04 µg/mL
[3]; phosphate buffer, pH 4.5, aqueous with cosolvent or surfactant or cyclodextrin, phosphate buffer pH 4.5, 1 wt.-% Cremophor ® RH 40, 1 mg API in 100 g buffer
  solubility: 7.67 µg/mL
[3]; phosphate buffer, pH 4.5, aqueous with cosolvent or surfactant or cyclodextrin, phosphate buffer pH 4.5, 1 wt.-% Gelucire ® 44/14, 1 mg API in 100 g buffer
  solubility: 53.5 µg/mL
[3]; phosphate buffer, pH 4.5, aqueous with cosolvent or surfactant or cyclodextrin, phosphate buffer pH 4.5, 1 wt.-% Labrasol ®, 1 mg API in 100 g buffer
  solubility: 45.8 µg/mL
[3]; phosphate buffer, pH 4.5, aqueous with cosolvent or surfactant or cyclodextrin, phosphate buffer pH 4.5, 1 wt.-% SLS, 1 mg API in 100 g buffer
  solubility: 1.68 µg/mL
[3]; phosphate buffer, pH 4.5, aqueous with cosolvent or surfactant or cyclodextrin, phosphate buffer pH 4.5, 1 wt.-% Solutol ® HS 15, 1 mg API in 100 g buffer
  solubility: 6.71 µg/mL
[3]; phosphate buffer, pH 4.5, aqueous with cosolvent or surfactant or cyclodextrin, phosphate buffer pH 4.5, 1 wt.-% Tween ® 80, 1 mg API in 100 g buffer
  solubility: 8.91 µg/mL
[3]; phosphate buffer, pH 4.5, aqueous with cosolvent or surfactant or cyclodextrin, phosphate buffer pH 4.5, 1 wt.-% vitamin E TPGS, 10 mg API in 100 g buffer
  solubility: 256 µg/mL

From US20180243273A1, “Composition for Intravesical Administration for Treating Bladder Pain” (priority 2017, published 2018)
